Key:
[1] = system: NCI-H292; assay: Anticancer activity against human NCI-H292 cells assessed as reduction in cell proliferation incubated for 48 hrs by Calcein AM and Pluronic F-127 staining based fluorescence plate reader analysis; assay type: functional; settings: NCI-H292, 48 h
[2] = system: MCF7; assay: Antiproliferative activity against human MCF7 cells assessed as reduction in cell viability incubated for 48 hrs by MTT assay; assay type: functional, cell-based; settings: MCF7, 48 h
[3] = system: HL-60; assay: Antiproliferative activity against human HL-60 cells assessed as reduction in cell viability incubated for 48 hrs by MTT assay; assay type: functional, cell-based; settings: HL-60, 48 h
[4] = system: SMMC-7721; assay: Antiproliferative activity against human SMMC-7721 cells assessed as reduction in cell viability incubated for 48 hrs by MTT assay; assay type: functional, cell-based; settings: SMMC-7721, 48 h
[5] = system: A549; assay: Antiproliferative activity against human A549 cells assessed as reduction in cell viability incubated for 48 hrs by MTT assay; assay type: functional, cell-based; settings: A549, 48 h
[6] = system: SW480; assay: Antiproliferative activity against human SW480 cells assessed as reduction in cell viability incubated for 48 hrs by MTT assay; assay type: functional, cell-based; settings: SW480, 48 h

SMILES	IC50 [1] [µM]	IC50 [2] [µM]	IC50 [3] [µM]	IC50 [4] [µM]	IC50 [5] [µM]	IC50 [6] [µM]
COC[C@@H](C[C@H]1O[C@@](O)(C[C@@H]2C[C@H](OC)CCC/C=C(C)/C=C/[C@@H](O[C@@H]3O[C@@H](C)[C@H](OC)[C@@H](O)[C@@H]3O)[C@H](C)/C=C(C)/C=C(C)/C=C(\C)C(=O)O2)[C@H](C)[C@@H](O)[C@H]1C)O[C@H]1C[C@](C)(O)[C@@H](O[C@H]2C[C@@H](OC)[C@H](O)[C@@H](C)O2)[C@H](C)O1	0.024	–	–	–	–	–
CC[C@H]1O[C@@]2(C)[C@H](OC(C)=O)[C@@]1(C)O[C@@H](C(O)C(O)/C=C/C=C/c1oc(=O)cc(OC)c1C)[C@@H]2O (stereo partly drawn)	–	> 40	> 40	> 40	> 40	> 40
COC[C@@H](C[C@H]1O[C@@](O)([C@H](O)[C@@H]2C[C@H](OC)[C@@H](O)CC/C=C(C)/C=C/[C@@H](O[C@@H]3O[C@@H](C)[C@H](OC)[C@@H](O)[C@@H]3O)[C@H](C)/C=C(C)/C=C(C)/C=C(/C)C(=O)O2)[C@H](C)[C@@H](O)[C@H]1C)O[C@H]1C[C@](C)(O)[C@@H](O[C@H]2C[C@@H](OC)[C@H](O)[C@@H](C)O2)[C@H](C)O1	0.15	–	–	–	–	–
CC[C@H]1O[C@@]2(C)[C@H](OC(C)=O)[C@@]1(C)O[C@@H](/C=C/C=C/C=C/c1cc(OC)cc(=O)o1)[C@@H]2O	–	> 40	> 40	> 40	> 40	> 40
CC[C@H]1O[C@@]2(C)[C@H](OC(C)=O)[C@@]1(C)O[C@@H](/C=C/C=C/C=O)[C@@H]2O	–	> 40	> 40	> 40	> 40	> 40
CC[C@H]1O[C@@]2(C)[C@H](OC(C)=O)[C@@]1(C)O[C@@H](C(O)/C=C/C(/C=C/c1oc(=O)cc(OC)c1C)OC)[C@@H]2O (stereo partly drawn)	–	> 40	> 40	> 40	> 40	> 40
CC[C@H]1O[C@@]2(C)[C@H](O)[C@@]1(C)O[C@@H](CC(O)/C=C/C=C/c1oc(=O)cc(OC)c1C)[C@@H]2O (stereo partly drawn)	–	> 40	> 40	> 40	> 40	> 40
COC[C@@H](C[C@H]1O[C@@](O)(C[C@@H]2C[C@H](OC)CCC/C=C(C)/C=C/[C@@H](O[C@@H]3O[C@@H](C)[C@@H](OC)[C@@H](O)[C@@H]3O)[C@H](C)/C=C(C)/C=C(C)/C=C(\C)C(=O)O2)[C@H](C)[C@@H](O)[C@H]1C)O[C@H]1C[C@](C)(O)[C@@H](O[C@H]2C[C@@H](OC)[C@H](O)[C@@H](C)O2)[C@H](C)O1	< 0.1	–	–	–	–	–
COc1cc(/C=C/C=C/C=C/[C@]2(C)O[C@]3(C)[C@@H](O)[C@](C)(O[C@@H]3C)[C@H]2O)oc(=O)c1	–	> 40	> 40	> 40	> 40	> 40
CC[C@H]1O[C@@]2(C)[C@H](OC(C)=O)[C@@]1(C)O[C@@H](C(O)C(/C=C/C=C/c1oc(=O)cc(OC)c1C)OC)[C@@H]2O (stereo partly drawn)	–	> 40	> 40	> 40	> 40	> 40
CC[C@H]1O[C@@]2(C)[C@H](OC(C)=O)[C@@]1(C)O[C@@H](C(O)/C=C/C(O)/C=C/c1oc(=O)cc(OC)c1C)[C@@H]2O (stereo partly drawn)	–	> 40	> 40	18.3	> 40	14.4
CC[C@H]1O[C@@]2(C)[C@H](OCCC(=O)O)[C@@]1(C)O[C@@H](/C=C/C=C/C=C/c1oc(=O)cc(OC)c1C)[C@@H]2O	–	> 40	> 40	> 40	> 40	> 40
CC[C@H]1O[C@@]2(C)[C@H](OC(C)=O)[C@@]1(C)O[C@@H](CC(O)/C=C/C=C/c1oc(=O)cc(OC)c1C)[C@@H]2O (stereo partly drawn)	–	> 40	> 40	> 40	> 40	> 40

— ChEMBL document CHEMBL5230122, “Natural products and other inhibitors of F1FO ATP synthase” (Eur J Med Chem, 2020)
